These results are taken from US10603322B2, “Therapeutic targeting of casein kinase 1δ in breast cancer” (The Scripps Research Institute, priority 2015, dated 2020).

The conditions of data set [1]: in vivo; cited from earlier work.
In data set [2] the test system is T47D breast cancer cells. Description: Cell proliferation assay (Cell-Titer Glo, 72 hr). The data set is classed as cell-based, human. Conditions: low CK1δ; versus CK1δ overexpressing cells. How it is done: (§1) Cell proliferation was measured 72 hr after SR-3029 or vehicle treatment using Cell-Titer Glo (Promega) according to the manufacturers' instructions. EC50 values were determined using non-linear regression and a four-parameter algorithm (GraphPad Prism5). For clonogenic assays, cells were plated in 6-well dishes in triplicate at a density of 500-1000 cells per well. After overnight incubation, SR-3029 or vehicle (DMSO) was added to media for 72 hr and cells were allowed to grow out for 7-10 days, during which media was changed every 2-3 days in the absence of compound. Colonies were fixed in 4% paraformaldehyde/PBS and stained with 0.5% methylene blue in 50% ethanol for 1 hr at room temperature and de-stained with water. Colonies with greater than 50 cells were counted using a low magnification light microscope.

Data set [3] relates to MCF10A cell line. Description: Cell proliferation assay (Cell-Titer Glo, 72 hr). As to conditions: low CK1δ; versus CK1δ overexpressing cells. It counts as cell-based, human. Here is the method:
as §1

Data set [4] relates to MCF7 breast cancer cells. Description: Cell proliferation assay (Cell-Titer Glo, 72 hr). Conditions: low CK1δ; versus CK1δ overexpressing cells. The data set is classed as cell-based, human. How it is done: as §1
Data set [5] relates to CK1δ overexpressing breast cancer cells. Description: Apoptosis by PI/Annexin V FACS. As to conditions: 72 hr treatment. It counts as cell-based, human. How it is done: 2×10^5 cells seeded in triplicate in 6-well dishes were cultured with SR-3029 or vehicle for 72 hr. Cells were then harvested and stained with Annexin V-FITC and PI using the Annexin V-FITC Apoptosis Detection Kit (BioVision) per the manufacturer's instructions and analyzed using the LSRI II flow cytometer (Becton Dickinson). Staurosporine (Cell Signaling) treated cells (1 μM) were used as positive/compensation controls.

A short description of data set [6]: Tolerability of long-term daily dosing. It counts as in vivo, mice. The text has this: (§2) All animal studies are approved by the Scripps Florida IACUC. Stable pools of MDA-MB-231-Luc, MDA-MB-231, MDA-MB-468, SKBR3 or BT474 cells were established by injection of 2×10^6 cancer cells into the mammary fat pads of 6-week old female athymic nude mice (Charles River Laboratories). Establishment of BCM-4013 patient derived xenografts were as described (19). Briefly, fresh xenograft tumor fragments (˜1 mm^3) were transplanted into the cleared mammary fat pad of recipient SCID/Bg mice (Charles River Laboratories). Mice were treated with SR-3029 or vehicle (10:10:80, DMSO:Tween-80:Water) at 20 mg/kg daily by i.p. injection. Tumor volumes were measured as the indicated intervals using calipers or by luminescence imaging using the IVIS 100 imager (exposure time, 1-60 sec; binning 8; field of view 15-cm; f/stop 1; open filter) following subcutaneous injection of luciferin (15 mg/ml, Goldbio Technology). Average radiance (p/s/cm^2/sr) was determined from tumor region-of-interest (ROI) using Living-Image (Xenogen) analysis software.
(§3) For apoptotic detection in cryosections tumors and small intestines were fixed in 10% buffered formalin for 2 hr, incubated in 20% sucrose overnight and embedded in OCT. Frozen sections ([…]) were mounted and stained using the ApopTag Red In Situ Kit according to the manufacturer instructions (CHEMICON). For H&E staining, tissues were fixed in 10% buffered formalin for 48 hr, transferred to 70% ethanol/PBS and embedded in paraffin. Staining was performed on […] sections following deparaffinization (AML Laboratories).

The test system of data set [7] is β-catenin/TCF transcriptional activity. Put plainly: TCF-dependent luciferase reporter assay in MDA-MB-231 cells. The data set is classed as cell-based, human. Conditions: increasing doses, 6 hr. How it is done: MDA-MB-231 or HEK293 cells stably expressing the TCF luciferase reporter 7TFP (39) were transfected with β-catenin-S33Y or empty vector (pcDNA). After 18 hr cells were seeded onto a 96-well plate at a density of 6000 cells/well. After 24 hr cells were treated with SR-3029 or vehicle and incubated for 6 hr prior to addition of 1 μg/ml recombinant human Wnt3a (R&D Systems) or PBS. After 3 hr, reporter assays were performed using BriteLite Plus (Perkin Elmer), which was added in equal volume directly to the media and luminescence read using a Spectramax plate reader (Molecular Devices).
Background: In a reporter assay the amount or activity of a reporter protein is the signal.

In data set [8] the test system is β-catenin. Description: β-catenin expression by immunoblot in breast cancer cells. It counts as cell-based, human. As to conditions: 18 hr. How it is done:
SDS-PAGE gel electrophoresis was performed using NuPAGE 4-12% Bis-Tris gels (Invitrogen) and transferred to PVDF membranes by semi-dry transfer using trans-blot transfer medium (Biorad). Membranes were blocked in Odyssey blocking buffer (LI-COR Biosciences) and incubated overnight at 4° C. with primary antibodies. After repeated washes with TBST (20 mM Tris, pH 7.6, 140 mM NaCl and 0.1% Tween-20) blots were incubated with the appropriate IRDye-conjugated secondary antibody (LI-COR Biosciences) and imaged using the LI-COR Odyssey. Bands were quantified using the Odyssey software (LI-COR Biosciences). The following antibodies were used in this study: CK1δ and Histone H4 (Abcam), CK1ε, c-Myc (9E10), Cyclin-D1 and β-actin (Santa Cruz), β-catenin (Cell Signaling), GAPDH (Millipore) and CD44 (R&D Systems).
(In general: Immunoblotting shows a protein as a band on a membrane.)

Data set [9] relates to SKBR3 (HER2+) tumor xenografts. Put plainly: Established orthotopic tumor xenograft. As to conditions: 20 mg/kg daily i.p.; tumors 100-mm^3 before treatment. It counts as in vivo, nude mice.
From the text: as §2

Data set [10] has as its system MDA-MB-468 (TNBC) tumor xenografts. Put plainly: Established orthotopic tumor xenograft. The data set is classed as in vivo, nude mice. As to conditions: 20 mg/kg daily i.p.; tumors 100-mm^3 before treatment.
From the text: as §2

Data set [11] has as its system BT474 (HER2+) tumor xenografts. Put plainly: Established orthotopic tumor xenograft. It counts as in vivo, nude mice. Conditions: 20 mg/kg daily i.p.; tumors 100-mm^3 before treatment.
From the text: as §2

The subject of data set [12] is MDA-MB-231 tumor xenografts. Description: Established orthotopic tumor xenograft. The data set is classed as in vivo, nude mice. As to conditions: 20 mg/kg daily i.p.
From the text: as §2, §3

Data set [13] concerns MDA-MB-231 cells. Put plainly: Clonogenic growth assay. It counts as cell-based, human. Here is the method: as §1
Data set [14] has as its system MCF7 breast cancer cells. Put plainly: Clonogenic growth assay. It counts as cell-based, human. Here is the method:
as §1

On to `Fc1cccc(-n2cnc3c(NCc4nc5ccc(F)c(F)c5[nH]4)nc(N4CCOCC4)nc32)c1` [SR-3029], for which, in data set [1], the pharmacokinetic properties result was “amenable for in vivo studies”. For the same compound, the “sensitivity in cell proliferation assay” value in data set [2] is 2-3 orders of magnitude less sensitive; in data set [3] it was 2-3 orders of magnitude less sensitive; in data set [4], 2-3 orders of magnitude less sensitive and relative insensitivity and refractory. Further, in data set [5], the apoptosis entry is listed as “selectively triggered rapid apoptosis”. Also, the “tolerability: body weight, blood chemistry and tissue integrity by histochemistry” value in [6] (long-term daily dosing (48 days), 20 mg/kg i.p.) is given as “well tolerated, with no overt toxicity”. For the same compound, the “small intestine apoptosis, TUNEL staining” value in [6] (long-term treatment) is given as “failed to detect evidence of apoptosis”. Moreover, the “small intestine integrity, H&E staining” value in [6] (long-term treatment) was “no gross morphological defects”. Moreover, the “endogenous β-catenin/TCF transcriptional activity” value in data set [7] is reported as “markedly reduced”. In addition, the “expression of the active, nuclear pool of β-catenin” value in [8] (MDA-MB-231, MDA-MB-436, MDA-MB-468 and BT474 cells, 30 nM) is recorded as “markedly reduced”. Also, the “unphosphorylated, active form of β-catenin (ABC)” value in [8] (MDA-MB-231 cells) is reported as “reduction”. Moreover, the tumor growth result in data set [9], in [10], in data set [11] and in data set [12] (tumors 100-mm^3 before treatment) was “marked tumor growth inhibition” throughout. For the same compound, the “lifespan (Kaplan-Meier survival)” value in data set [12] is reported as “significantly prolonged lifespan”. Besides, the “tumor apoptosis (TUNEL)” value in [12] is recorded as “fulminant apoptosis”. In addition, in [13], the “clonogenic growth and survival” value is given as “completely blocked”. In data set [13] (CK1δ overexpressing vs GFP-expressing controls), the “clonogenic growth inhibition with forced overexpression of CK1δ” value is reported as “sufficient to rescue the growth inhibitory effects”. The colony forming capacity result in [14] is “no effect”. Besides, the “sensitivity of MCF7 cells with forced overexpression of CK1δ” value in data set [14] (short-term and long-term growth assays, CK1δ vs GFP) is “sensitizes them to SR-3029”.
